Measured values: patent US4550186A, “Binuclear copper (II) carboxylates formed from amine-carboxyboranes” (Duke University, priority 1983, dated 1985)

Columns and labels:
[1] = Relative solubilities in solvents; type: physicochemical
Text: Solvents in which ligand exchange reactions or initial formation of the complex may take place depend on the structure of the amine portion of the complex and on the ligand being introduced as is well understood by those skilled in the art. Typical solvents which may be used include water and polar organic solvents, such as methanol and pyridine. Typical of solubilities are the following relative solubilities of {Cu[(Me3 NBH2 COO)2.Me3 NBH2 CO2 H]}2 : […]

[2] = biological target: T1, ribonucleotide reductase (Mus musculus, UniProt P07742+P11157); test: In vitro ribonucleotide reductase activity; type: biochemical; conditions: 0.25 to 1.0 mM
T1 construct: endogenous in cells; host or cells: Ehrlich ascites tumor cells
T1 sequence (P07742 1-792): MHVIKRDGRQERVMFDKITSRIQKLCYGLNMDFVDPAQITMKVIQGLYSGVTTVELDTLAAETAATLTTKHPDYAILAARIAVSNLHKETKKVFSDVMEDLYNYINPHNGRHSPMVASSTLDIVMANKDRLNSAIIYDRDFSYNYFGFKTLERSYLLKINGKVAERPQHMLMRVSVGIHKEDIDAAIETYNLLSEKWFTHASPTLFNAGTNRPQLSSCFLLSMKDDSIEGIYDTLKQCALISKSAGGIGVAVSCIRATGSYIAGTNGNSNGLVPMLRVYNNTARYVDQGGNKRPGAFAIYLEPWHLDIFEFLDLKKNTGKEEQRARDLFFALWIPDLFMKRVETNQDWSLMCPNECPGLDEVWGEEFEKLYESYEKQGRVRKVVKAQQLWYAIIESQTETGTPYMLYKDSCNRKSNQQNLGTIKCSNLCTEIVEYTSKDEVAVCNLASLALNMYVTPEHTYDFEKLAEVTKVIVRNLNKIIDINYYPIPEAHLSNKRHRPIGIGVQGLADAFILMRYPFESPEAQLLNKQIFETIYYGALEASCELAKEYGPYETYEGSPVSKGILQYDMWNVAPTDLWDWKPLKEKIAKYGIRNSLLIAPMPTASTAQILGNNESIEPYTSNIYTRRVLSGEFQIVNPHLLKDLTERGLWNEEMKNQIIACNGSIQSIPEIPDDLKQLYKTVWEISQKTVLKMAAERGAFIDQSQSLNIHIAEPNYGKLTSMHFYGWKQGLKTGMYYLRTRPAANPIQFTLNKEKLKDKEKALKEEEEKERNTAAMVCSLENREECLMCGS
T1 sequence (P11157 1-390): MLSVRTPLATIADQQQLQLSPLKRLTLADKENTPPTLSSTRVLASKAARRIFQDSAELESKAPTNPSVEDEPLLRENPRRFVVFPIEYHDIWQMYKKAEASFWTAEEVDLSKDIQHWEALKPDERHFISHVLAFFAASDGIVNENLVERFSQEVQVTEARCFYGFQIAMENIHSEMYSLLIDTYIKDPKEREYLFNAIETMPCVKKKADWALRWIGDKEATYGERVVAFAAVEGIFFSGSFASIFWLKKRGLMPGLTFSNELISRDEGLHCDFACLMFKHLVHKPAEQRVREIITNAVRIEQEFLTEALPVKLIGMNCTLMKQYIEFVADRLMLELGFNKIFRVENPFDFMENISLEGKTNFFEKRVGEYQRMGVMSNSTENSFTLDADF
Procedure: CF1 male mice (~30 g) were implanted with 2×10^6 Ehrlich ascites tumor cells, intraperitoneally on Day 0. Compound I was suspended by homogenation in 0.05% polysorbate.80-water and administered intraperitoneally at 10 and 20 mg/kg for 9 days to determine its effectiveness for inhibition of tumor growth. Mice were sacrificed on Day 10, and the ascites fluid was collected from the peritoneal cavity. The volume and ascrit (packed cell volume) were determined for each animal and the percent inhibition of tumor growth was calculated. For the metabolic studies, mice were treated on Days 8 and 9 with 10 mg/kg of Compound I, intraperitoneally. […]
Carbamyl phosphate synthetase activity was determined using the reaction medium of Kalman et al [Am. […] Citrulline formed from ornithine was measured at 490 nm by the method of Archibald [J. Biol. Chem., 156, 121 (1944)]. […] The ^14 CO2 generated in 15 min was trapped in 1M KOH and counted. Thymidylate synthetase activity was determined using a post-mitochondrial supernatant (9000 g×10 min) and 5 μCi of 5-^3 H-deoxyuridine monophosphate (14 Ci/mmol) according to the method of Kampf et al [ J. Med. Chem., 19, 903 (1976)]. ^14 C-Formate incorporation into purines was determined by the method of Spassova et al [Biochem. Pharmacol., 25, 923 (1976)] using 0.5 μCi of ^14 C-formic acid (52.0 mCi/mmol). […] The Rf value for xanthine monophosphate was scraped and counted. […]

{Cu[(CH3)3 N.BH2 CO2 ]2.(CH3)3 N.BH2 COOH} [Compound I]
not inhibited: ribonucleotide reductase inhibition [2]
slightly soluble: Solubility ([1]; Methylene chloride)
very slightly soluble: Solubility ([1]; Ethanol)
moderately soluble: Solubility ([1]; Acetic Acid) | Solubility ([1]; Acetonitrile) | Solubility ([1]; Dimethyl sulfoxide) | Solubility ([1]; Methanol) | Solubility ([1]; Pyridine)
very soluble: Solubility ([1]; Water)
insoluble: Solubility ([1]; 2-Chloro-2-methylpropane) | Solubility ([1]; Acetone) | Solubility ([1]; Benzene) | Solubility ([1]; Chloroform) | Solubility ([1]; Diethyl ether) | Solubility ([1]; Ethyl Acetate) | Solubility ([1]; Isopropanol) | Solubility ([1]; Isopropyl ether) | Solubility ([1]; Pentane) | Solubility ([1]; Tetrahydrofuran)
